# Reference: patent US20110218515A1, “Methods for Treating Acute Myocardial Infarctions and Associated Disorders” (The Regents of the University of California, priority 2009, published 2011)
# Key:
# [1] = system: ischemia-reperfusion rat model; settings: in vivo
# Experimental: After baseline echocardiography, thirty male Sprague-Dawley rats, ages 6-10 weeks, underwent myocardial infarction using an ischemia-reperfusion model. Briefly, rats were anesthetized using inhaled isoflurane (5% induction, 2.5% maintenance, O2 output 1 L/min) and positioned supine on an electrically warmed animal surgery platform. Rats were intubated using a 16-gauge i.v. catheter and then ventilated using a Harvard rodent respirator. After a left thoracotomy and pericardiotomy were performed, a 7-0 Ticron suture was introduced into the myocardium, using the left atrial appendage and right outflow tract as landmarks. The depth of entry was 2 mm, which was slightly greater than the level of the left coronary artery. Both suture ends were then threaded through a PE-90 polyethylene tube 6 in. in length to form a “snare loop” around the artery, closed by pulling on the free ends of the suture. […] The suture was then tightened to occlude the artery for 20 minutes and then removed to allow for reperfusion. The chest was then closed with 5-0 prolene suture, and the animal was allowed to recover. After one week and repeat echocardiography, rats were randomized to placebo rodent feed (control group, n=15) or rodent feed mixed with 1.2% pirfenidone (PFD) (treatment group, n=15) for four weeks. All experiments and data analyses were performed with the operator blinded to treatment group. […]
# [2] = system: TNF-α, TGF-β1, bFGF, PDGF, and EGF; settings: literature report; cited from earlier work
# [3] = system: ischemia-reperfusion rat model; assay: Optical mapping, programmed stimulation and VT inducibility of excised hearts 5 wks after MI; assay type: in vivo, Sprague-Dawley rats; settings: for conduction heterogeneity vs control: all tested cycle lengths; for rise times of border zones vs control: significant at lowest PCL
# Experimental: After baseline echocardiography, thirty male Sprague-Dawley rats, ages 6-10 weeks, underwent myocardial infarction using an ischemia-reperfusion model. Briefly, rats were anesthetized using inhaled isoflurane (5% induction, 2.5% maintenance, O2 output 1 L/min) and positioned supine on an electrically warmed animal surgery platform. Rats were intubated using a 16-gauge i.v. catheter and then ventilated using a Harvard rodent respirator. After a left thoracotomy and pericardiotomy were performed, a 7-0 Ticron suture was introduced into the myocardium, using the left atrial appendage and right outflow tract as landmarks. The depth of entry was 2 mm, which was slightly greater than the level of the left coronary artery. Both suture ends were then threaded through a PE-90 polyethylene tube 6 in. in length to form a “snare loop” around the artery, closed by pulling on the free ends of the suture. […] The suture was then tightened to occlude the artery for 20 minutes and then removed to allow for reperfusion. The chest was then closed with 5-0 prolene suture, and the animal was allowed to recover. After one week and repeat echocardiography, rats were randomized to placebo rodent feed (control group, n=15) or rodent feed mixed with 1.2% pirfenidone (PFD) (treatment group, n=15) for four weeks. All experiments and data analyses were performed with the operator blinded to treatment group. Optical mapping is a technique to perform high-resolution electrophysiologic evaluation of the cardiac tissue. To summarize the procedure, ten thousand simultaneous optical action potentials were recorded with a 100×100 CMOS camera within a 19 mm×19 mm mapping field on the epicardium of the LV anterior wall. Using a 1000-W tungsten-halogen light source, fluorescence was excited with an excitation filter of 530 nm and transmitted with an emission long-pass filter of >630 nm. Fluorescent optical maps were acquired at 2000 Hz during programmed electrical stimulation. Optical mapping was performed 5 wks after MI. Rats were injected with heparin (500 U ip) 15 min before excision of the heart, and were then anesthetized with pentobarbital sodium (50 mg/kg ip). After adequate anesthesia, the heart was rapidly excised and arrested by immersion in cold cardioplegia solution. The aorta was cannulated and retrogradely perfused, at a rate of 6 mL/min, with 37° C. modified Tyrode solution containing (in mmol/L): 130 NaCl, 20.0 NaHCO3, 1.2 MgCl2, 4.0 KCl, 5.6 glucose, and 1.8 CaCl2, gassed with 95% 02/5% C02. Extraneous tissue was carefully removed from the heart. The cannulated heart was then placed in 37° C. Tyrode solution in a specialized temperature-controlled optical recording chamber (maintained at 37° C.) while ECG, perfusion rate, and temperature were measured continuously for the duration of the experiment. Before optical recordings, Tyrode solution containing voltage-sensitive dye PGH I (10 μL of 5 mM stock solution) was perfused through the preparation over a 5-min period. Once a cannulated heart was perfused with PGH I, it was placed in the optical chamber with its LV anterior wall pressed against the imaging window. […] During optical recordings, contractility was blocked with 15 mM butadione monoxime (BDM). Ventricular epicardium bipolar pacing, at a stimulus amplitude of 2× threshold, was performed on normal tissue near the infarct zone. Mapping was recorded during pacing drives of 250 ms to 90 ms (decremented by 10 ms), as well as during S1-S2 pacing using a basic cycle length (BCL) of 200 ms and maximum S2 of 150 ms and decremented by 10 ms. Programmed stimulation, with up to three extrastimuli, and burst pacing (from 90 ms to 60 ms) were used to assess arrhythmia inducibility. Inducibility was defined as the ability to provoke sustained (>30 s) ventricular tachycardia (VT) or ventricular fibrillation. Maps were also captured during programmed stimulation and with all episodes of arrhythmia. […]
smiles,measurement,setting,value
Cc1ccc(=O)n(-c2ccccc2)c1 [pirfenidone],"mortality, CHF, or arrhythmias in treated animals",[1],"No increased mortality, CHF, or arrhythmias"
same,"biosynthesis or release of various cytokines such as TNF-α, TGF-β1, bFGF, PDGF, and EGF",[2],inhibit excessive biosynthesis or release
same,collagen expression,[2],decrease collagen expression
same,fluorescence amplitude in the border zones vs control,[3],trend toward higher amplitudes
same,decrease in VT susceptibility vs control,[3]; 5 wks after MI,almost three-fold decrease
same,rate of VT induction,"[3]; 5 wks after MI, controls 73.3%, p=0.027",28.6%
same,conduction velocities in the border zones vs control,"[3]; all pacing cycle lengths, p<0.05",significantly faster
same,conduction heterogeneity vs control,[3]; p=0.146,trend toward lower conduction heterogeneity
same,conduction heterogeneity vs control,"[3]; p=0.146, listed as PFD",trend toward higher conduction heterogeneity indices in control animals
same,maximal rate of AP rise (dF/dt) of border zones vs control,[3]; trend at all PCLs,faster than the rise of control border zones
same,rise times of border zones vs control,[3]; trend at all PCLs,shorter
same,rise times of border zones vs control,"[3]; trend at all PCLs, listed as PFD",lower than those of control border zones
